The subject of data set [1] is patients with major depressive disorder (MDD). Kind of data set: Arizona Sexual Experiences Scale (ASEX) in the fixed dose comparison study. In kind it is in vivo, human. The procedure: The study consists of a one-week single-blind placebo lead-in period followed by an 8 week double-blind treatment period. Approximately 135 patients are randomized to each of four treatment groups (placebo, escitalopram oxalate 4 mg, bupropion hydrochloride 150 mg, or escitalopram oxalate 4 mg/bupropion hydrochloride 150 mg), for a total of […].
A randomized, double-blind, fixed-dose, multicenter, parallel-group study is conducted in outpatients with MDD. Patients who meet eligibility criteria at Screening (Visit 1) enter a one-week, single-blind, lead-in period of placebo treatment. Patients who complete the lead-in period and continue to meet all entry criteria at Baseline (Visit 2) are randomly assigned to 8 weeks of double-blind treatment with either placebo, escitalopram 4 mg, bupropion XL 150 mg, or escitalopram 4 mg/bupropion XL 150 mg combination. Assignment to a treatment group is according to a computer-generated randomization schedule.
The Arizona Sexual Experiences Scale (ASEX) is completed at Visits 2 and 7, or early termination. Different versions are used for males and females. This 5 item patient-rated scale assesses sexual experiences with respect to libido, psychological and physiological arousal, ability to attain orgasm, and satisfaction with orgasm. Each item is scored on a 6 point scale with higher numbers indicating greater sexual dysfunction.

For data set [2] the test system is unchanged. The data set is described as follows: double-blind fixed dose comparison in major depressive disorder: efficacy (MADRS, HAMD, CGI, HAMA, QOL). The class given is in vivo, human. Set-up: key to QOL: LS mean change from baseline to endpoint (LOCF): aggregated 5-point item scores; higher = greater enjoyment/satisfaction; HAMD17: LS mean change from baseline to endpoint (LOCF): scale not given here. Conditions: escitalopram 4 mg, bupropion XL 150 mg, 8 weeks; for CGI % response: CGI-I response = 1 or 2; for HAMD17 % remission: HAMD17 remission <=7; for HAMD24 % response: HAMD24 response >=50% improvement; for MADRS % remission: MADRS remission <=12; for MADRS % response: MADRS response >=50% improvement; for CGI-I: LS mean (LOCF) / CGI-S: LS mean change from baseline to endpoint (LOCF) / HAMA: LS mean change from baseline to endpoint (LOCF) / HAMD17: LS mean change from baseline to endpoint (LOCF) / HAMD24 2° parameter, validated: LS mean change from baseline to endpoint (LOCF) / HAMD cognit disturb: LS mean change from baseline to endpoint (LOCF) / HAMD psychomotor: LS mean change from baseline to endpoint (LOCF) / MADRS 1° parameter, validated: LS mean change from baseline to endpoint (LOCF) / QOL: LS mean change from baseline to endpoint (LOCF): vs placebo. The procedure:
This clinical study is conducted as a double-blind, randomized, fixed-dose, multicenter, parallel-group study in outpatients as shown in the Figure below: […] Approximately 135 patients are randomized to each of four treatment groups (placebo, escitalopram oxalate 4 mg, bupropion hydrochloride 150 mg, or escitalopram oxalate 4 mg/bupropion hydrochloride 150 mg), for a total of […]. A randomized, double-blind, fixed-dose, multicenter, parallel-group study is conducted in outpatients with MDD. […] Assignment to a treatment group is according to a computer-generated randomization schedule. […] The following primary efficacy assessments are performed at patient visits: […] The following secondary efficacy assessments are performed at patient visits: […] The following additional efficacy assessments are performed at patient visits: […] This scale rates the severity of the patient's current state of mental illness based on the investigator's clinical opinion with regard to a patient population with MDD. The patient is rated on a scale of 1 to 7 with 1 being normal and 7 being a patient who was among the most extremely ill. […] Based on the investigator's clinical opinion, this scale rates the total improvement or worsening in the patient's mental illness from his/her baseline assessment, regardless of whether or not the investigator considered it due to drug treatment. The patient is rated on a scale from 1 to 7 with 1 being very much improved and 7 being very much worse. […] Each item is scored on a 5 point scale with 0 reflecting no symptoms and 4 reflecting symptoms of maximum severity. […] Five-point item scores are aggregated, with higher scores indicative of greater enjoyment or satisfaction in each domain. Dosing: For the single-blind lead-in period, patients are supplied with placebo capsules. For the double-blind period, identical appearing capsules are supplied which contain placebo, escitalopram 4 mg, or bupropion extended-release 150 mg. […] All study medication is administered as a single daily dose throughout the study, preferably at the same time each evening starting on the day the medication is dispensed to the patient. Dosing is subsequently be switched to morning, if preferred. […] Patients are instructed to return all unused medication at each study visit. […] Patients are instructed to take two capsules daily as a single dose beginning on the day study medication is dispensed. […] Patients are assigned the lowest randomization number available at the site. Patients are instructed to take two capsules daily as a single dose beginning on the day study medication is dispensed. In accordance with their assigned treatment group, patients receive placebo, 4 mg escitalopram, 150 mg bupropion, or 4 mg escitalopram and 150 mg bupropion per day. […] Patients are instructed to continue taking two capsules daily as a single dose. In accordance with their assigned treatment group, patients receive placebo, 4 mg escitalopram, 150 bupropion, or 4 mg escitalopram and 150 mg bupropion per day. Efficacy: All efficacy analyses are based on the Intent-to-Treat (ITT) Population. […] All efficacy analyses are performed using both the Last Observation Carried Forward (LOCF) and the Observed Cases (OC) approach. In these analyses, the last observed value before a post-baseline missing value are carried forward to impute the missing value. […] For OC analyses, only observed values are used. […] The primary analysis is performed using the LOCF approach. Three primary comparisons between the escitalopram/bupropion combination group relative to each of the three other groups (placebo, escitalopram, or bupropion) are performed using an ANCOVA model with the treatment group and center as factors and the baseline MADRS score as a covariate. […] The analyses are carried out using a similar statistical model as used for the primary efficacy parameter. […]

Data set [3] concerns rat dorsal raphe nucleus (DRN) 5-HT neurons. Kind of data set: effects on rat dorsal raphe nucleus serotonin neurons (extracellular unitary recordings of firing). The class given is in vivo. To be noted: anesthetized rats; two days treatment; escitalopram 10 mg/kg s.c. minipump, bupropion 30 mg/kg s.c. once daily. The procedure: Glass electrodes were lowered into the DRN 5-HT neurons were identified by their firing pattern and spike duration. […] NS). […] The experiments were carried out in male Sprague Dawley rats (Charles River, St. Constant, Québec, Canada) weighing between 300 to 325 g being kept under standard laboratory conditions (12:12 light-dark cycle with access to food and water ad libitum). Rats were anaesthetized with chloral hydrate (400 mg/kg, i.p.) and mounted in a stereotaxic apparatus (David Kopf Instruments, Tujunga, Calif., USA). […] Body temperature was maintained at 37° C. throughout the experiments utilizing a thermistor-controlled heating pad (Seabrook Medical Instruments, Inc., […], Canada). Prior to electrophysiological recording, rats were inserted with a catheter in a lateral tail vein for systemic injection of drugs. Rats received escitalopram oxalate administered through an osmotic minipump implanted subcutaneously, under halothane anaesthesia, which delivered 10 mg/kg/day. The recordings were carried out with the minipump in the animals. Bupropion hydrochloride was injected subcutaneously once a day at a dose of 30 mg/kg for 2 days with the last dose administered immediately prior to the electrophysiological experiments. […] Their impedance range was between 2 and 4 MΩ. […] Serotonin neurons were recorded with micropipettes lowered at +1.0 mm interaural on midline. […]

Several values for one entry are separate records, joined by “and”; a condition that tells them apart may be missing. Identical values can stand only once. Marks after values point to notes of the source that are not given here.

Data on two compounds can be found in patent US7569605B2, “Methods of treating central nervous system disorders with a low dose combination of escitalopram and bupropion” (Forest Laboratories Holdings Limited, priority 2005, dated 2009).

Turning to `CC(NC(C)(C)C)C(=O)c1cccc(Cl)c1` (racemic) [bupropion, (±)-1-(3-chlorophenyl)-2-[(1,1-dimethylethyl)amino]-1-propanone], the “ASEX Change in total scores (improvement = reduction in score)” value in data set [1] (Females) is recorded as −1.6571. Further, the “ASEX Change in total scores (improvement = reduction in score)” value in data set [1] (Males) is recorded as −1.4222. In data set [2], the CGI % response is 46.6% and 46.62%; the HAMD17 % remission was 29.3% and 29.32%; the HAMD24 % response was 42.9% and 42.86%; the MADRS % remission was 37.6% and 37.59%. In addition, in data set [2], the MADRS % response was 43.6% and 43.61%; the “CGI-I: LS mean (LOCF)” value was −0.11; the “CGI-S: LS mean change from baseline to endpoint (LOCF)” value is −0.27; the “HAMA: LS mean change from baseline to endpoint (LOCF)” value is on record as −1.31. Also, in data set [2], the “HAMD17: LS mean change from baseline to endpoint (LOCF)” value is −0.75; the “HAMD24 2° parameter, validated: LS mean change from baseline to endpoint (LOCF)” value was −1.10; the “HAMD cognit disturb: LS mean change from baseline to endpoint (LOCF)” value is −0.21; the “HAMD psychomotor: LS mean change from baseline to endpoint (LOCF)” value is −0.33. Moreover, in data set [2], the “MADRS 1° parameter, validated: LS mean change from baseline to endpoint (LOCF)” value is recorded as −1.08 and the “QOL: LS mean change from baseline to endpoint (LOCF)” value worked out at 1.97. Further, the “spontaneous firing of DRN 5-HT neurons” value in data set [3] came to 1.54 Hz.

In the case of `CN(C)CCC[C@@]1(c2ccc(F)cc2)OCc2cc(C#N)ccc21` [escitalopram, 1-[3-(dimethyl-amino)propyl]-1-(p-fluorophenyl)-5-phthalancarbonitrile], the “ASEX Change in total scores (improvement = reduction in score)” value in data set [1] (Females) is recorded as −1.0000. In data set [1] (Males), the “ASEX Change in total scores (improvement = reduction in score)” value is reported as “+0.1667”. Moreover, in data set [2], the CGI % response is 56.5% and 56.49* %; the HAMD17 % remission was 29.8% and 29.77%; the HAMD24 % response is 46.6% and 46.56* %; the MADRS % remission is 35.9% and 35.88%. Besides, in data set [2], the MADRS % response was 47.3% and 47.33* %; the “CGI-I: LS mean (LOCF)” value is 0.33*; the “CGI-S: LS mean change from baseline to endpoint (LOCF)” value is −0.32*; the “HAMA: LS mean change from baseline to endpoint (LOCF)” value is reported as −1.91*. In addition, in data set [2], the “HAMD17: LS mean change from baseline to endpoint (LOCF)” value is −0.75; the “HAMD24 2° parameter, validated: LS mean change from baseline to endpoint (LOCF)” value is listed as −1.15; the “HAMD cognit disturb: LS mean change from baseline to endpoint (LOCF)” value is on record as −0.29; the “HAMD psychomotor: LS mean change from baseline to endpoint (LOCF)” value is recorded as −0.16. Besides, in data set [2], the “MADRS 1° parameter, validated: LS mean change from baseline to endpoint (LOCF)” value is on record as −2.51* and the “QOL: LS mean change from baseline to endpoint (LOCF)” value was found to be 2.25. In addition, in data set [3], the “spontaneous firing of DRN 5-HT neurons” value was 0.35 Hz.
